Results reported in paper PMC3070735, “Uremic Toxins Inhibit Transport by Breast Cancer Resistance Protein and Multidrug Resistance Protein 4 at Clinically Relevant Concentrations” (PLoS ONE, 2011).
Where a name gives a salt, the structure may show the parent alone. Read-outs that look alike come from different tables or passages of the source. Marks after values point to notes of the source that are not given here.

Assays:
[1] = biological target: T1, BCRP (Homo sapiens, UniProt Q9UNQ0); assay: Membrane vesicle transport inhibition assay: BCRP-mediated [3H]-E1S uptake; settings: for Mode of inhibition of BCRP-mediated transport: Dixon plot, three [3H]-E1S concentrations; for IC50: IC50, [3H]-E1S uptake into BCRP membrane vesicles, 1 min, 37°C, mean ± SEM of three experiments; for IC20 at 1 min: human, membrane vesicles from HEK293 cells overexpressing BCRP, pH 7, probe [3H]-estrone sulfate ([3H]-E1S); for Decrease of BCRP-mediated transport compared to control: toxin 1 mM
T1 sequence (Q9UNQ0 1-655): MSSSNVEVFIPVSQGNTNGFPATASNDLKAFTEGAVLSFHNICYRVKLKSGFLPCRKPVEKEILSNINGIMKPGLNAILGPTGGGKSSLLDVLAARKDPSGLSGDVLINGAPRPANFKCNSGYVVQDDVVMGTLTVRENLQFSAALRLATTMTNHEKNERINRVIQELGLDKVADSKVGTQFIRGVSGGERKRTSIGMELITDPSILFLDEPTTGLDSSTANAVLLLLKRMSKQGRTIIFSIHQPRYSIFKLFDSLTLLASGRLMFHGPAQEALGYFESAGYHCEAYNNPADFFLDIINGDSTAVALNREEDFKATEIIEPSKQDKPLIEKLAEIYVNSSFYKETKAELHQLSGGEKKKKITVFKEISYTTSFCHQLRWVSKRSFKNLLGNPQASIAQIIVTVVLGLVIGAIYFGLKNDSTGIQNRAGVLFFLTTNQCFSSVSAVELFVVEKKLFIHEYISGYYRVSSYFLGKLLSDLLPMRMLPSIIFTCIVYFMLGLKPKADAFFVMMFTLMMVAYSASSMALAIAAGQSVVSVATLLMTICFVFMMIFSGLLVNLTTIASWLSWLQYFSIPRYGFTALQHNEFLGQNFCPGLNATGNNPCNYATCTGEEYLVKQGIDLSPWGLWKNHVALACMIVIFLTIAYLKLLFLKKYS
Experimental: Human embryonic kidney (HEK293; purchased at American Type Culture Collection, Manassas, VA) cells were cultured in Dulbecco's modified Eagle's medium (Invitrogen life sciences, Breda, the Netherlands) containing 10% (v/v) fetal calf serum (MP Biomedicals, Uden, the Netherlands) at 37°C in a 5% (v/v) CO2 atmosphere. To functionally overexpress MRP4 and BCRP, HEK293 cells were transduced with baculoviruses of human MRP4, BCRP or enhanced yellow fluorescent protein (EYFP), generated via the Bac-to-Bac system (Invitrogen) as previously described. To transduce HEK293 cells, they were cultured in 500 cm^2 flasks until 70% confluence. Subsequently, medium was removed and 10 ml of virus and 25 ml of medium were added and incubated for 30 min at 37°C. Next, 50 ml of medium was added and after 2 h of transduction 5 mM sodium butyrate was added.
Three days after transduction, cells were harvested and pelleted by centrifugation (30 min at 4,000 x g). Afterwards, the cells were resuspended in ice-cold hypotonic TS buffer (0.5 mM sodium phosphate, 0.1 mM EDTA, pH 7.0) containing protease inhibitors (100 µM phenylmethylsulfonyl fluoride, 5 µg/ml aprotinin, 5 µg/ml leupeptin, 1 µg/ml pepstatin and 1 µg/ml E-64) and shaken for 30 min at 4°C. Cells were then centrifuged at 100,000 x g for 30 min at 4°C. Subsequently, pellet was resuspended in ice-cold isotonic buffer (10 mM Tris-HEPES and 250 mM sucrose, pH 7.4, adjusted with HEPES) supplemented with protease inhibitors and homogenized using a tight fitting Dounce homogenizer followed by centrifugation (1,000 x g, 20 min, 4°C). Afterwards, supernatant was centrifuged at 100,000 x g for 1 h at 4°C. The resulting pellet was resuspended in isotonic buffer and passed through a 27-gauge needle 25 times to obtain crude membrane vesicles. The protein content of samples was determined using the Bio-Rad protein assay (Veenendaal, the Netherlands), according to manufacturers recommendations. Vesicles were frozen in liquid nitrogen and stored at −80°C until use. The orientation of the membrane vesicles was not determined, since ATP-dependent uptake occurs only in inside-out vesicles.
A rapid filtration technique was used to study the uptake of [^3H]-MTX and [^3H]-E1S into MRP4 or BCRP membrane vesicles, as previously described. In short, 25 µl of TS buffer containing 4 mM ATP, 10 mM MgCl2 and radiolabeled substrate was added to 5 µl of the membrane vesicles (1.5 mg/ml). The transport assay was performed in the absence or presence of various concentrations of uremic toxins to evaluate the inhibitory effects of these compounds on MRP4-mediated [^3H]-MTX uptake and BCRP-mediated [^3H]-E1S uptake. […] Uptake was stopped by placing the samples on ice and the addition of 150 µl ice cold TS buffer. Subsequently, the samples were transferred to a 96 well filter plate (Millipore, Etten-leur, the Netherlands) pre-incubated with TS buffer and filtered using a Multiscreen HTS-Vacuum Manifold filtration device (Millipore). Afterwards, 2 ml of scintillation liquid was added to each filter and radioactivity was determined using liquid scintillation counting. As negative controls ATP was substituted for AMP and EYFP-membrane vesicles were used. Each experiment was performed in triplicates.
Statistics were performed using GraphPad Prism 5.02 via an unpaired t test or a Kruskal-Wallis test followed by a Dunn's Multiple Comparison test. Differences between groups were considered to be statistically significant when p<0.05. The mean IC50 and IC20 values were calculated from the inhibition curves used for the Dixon analysis and to determine the inhibition constant (Ki) from the Dixon plots. Transport inhibition studies were performed in triplicate and repeated at least three times.

[2] = plasma of CKD patients, cited from earlier work
[3] = [3H]-E1S uptake, result in words

Structure (SMILES): O=S(=O)(O)Oc1c[nH]c2ccccc12 [indoxyl sulfate]
- Ki [1]: 500 µM
- Mode of inhibition of BCRP-mediated transport [1]: non-competitive
- IC50 [1]: 770 ± 120 µM
- IC20 at 1 min [1]: 390 ± 30 µM
- Cu, highest mean/median uremic concentration ([2]; ref www.uremic-toxins.org [19]): 211 µM

Structure (SMILES): NCCCCN [putrescine]
- Effect on transport mediated by BCRP [1, 3]: did not alter transport
- Decrease of BCRP-mediated transport compared to control ([1]; [3H]-E1S uptake): ≤ 10%

Structure (SMILES): O=C(O)Cc1ccccc1 [phenylacetic acid]
- Effect on transport mediated by BCRP [1, 3]: only reduced [^3H]-MTX uptake by MRP4
- Cu, highest median plasma concentration [2]: 3.5 mM
- Cu, highest mean/median uremic concentration ([2]; obtained from literature): 3490 ^a µM

Structure (SMILES): Cc1ccc(O)cc1 [p-cresol]
- Effect on transport mediated by BCRP [1]: did not alter transport
- Decrease of BCRP-mediated transport compared to control ([1]; [3H]-E1S uptake): ≤ 10%

Structure (SMILES): O=C(O)CNC(=O)c1ccccc1 [hippuric acid]
- Ki [1]: 4000 ± 100 µM
- Extent of inhibition of [3H]-E1S uptake by BCRP ([1]; 0.1 mM to 3.5 mM, result in words): completely blocked
- Mode of inhibition of BCRP-mediated transport [1]: non-competitive
- IC50 [1]: 3670 ± 170 µM
- IC20 at 1 min [1]: 690 ± 70 µM
- Cu, highest mean/median uremic concentration ([2]; ref www.uremic-toxins.org [19]): 1380 µM
- Cu, highest median uremic concentration ([2]; ref www.uremic-toxins.org [19]): 1.4 mM
- Cmax ([2]; ref www.uremic-toxins.org [19], read-out: Cmax, maximal uremic concentration): 2600 µM

Structure (SMILES): O=C(O)c1cc(=O)c2ccccc2[nH]1 [kynurenic acid]
- Ki [1]: 50 µM
- IC50 [1]: 40 ± 1 µM
- IC20 at 1 min [1]: 10 ± 1 µM

Structure (SMILES): O=C(O)Cc1c[nH]c2ccccc12 [indole-3-acetic acid]
- Effect on transport mediated by BCRP [1, 3]: only reduced [^3H]-MTX uptake by MRP4

Structure (SMILES): O=C(O)C(=O)O [oxalate]
- Effect on transport mediated by BCRP [1, 3]: did not alter transport
- Decrease of BCRP-mediated transport compared to control ([1]; [3H]-E1S uptake): ≤ 10%

Structure (SMILES): O=C(O)c1cccnc1C(=O)O [quinolinic acid]
- Effect on transport mediated by BCRP [1, 3]: did not alter transport
- Decrease of BCRP-mediated transport compared to control ([1]; [3H]-E1S uptake): ≤ 10%

Structure (SMILES): Cc1ccc(S(=O)(=O)O)cc1 [p-toluenesulfonic acid, reference compound]
- Effect on transport mediated by BCRP [1, 3]: did not alter transport
- Decrease of BCRP-mediated transport compared to control ([1]; [3H]-E1S uptake): ≤ 10%
